# Data: patent US11945881B2, “Neoantigens expressed in ovarian cancer and their uses” (Janssen Biotech, Inc., priority 2020, dated 2024)
# Columns and labels:
# [1] = tested on: CD8+ T cells; test: exogenous autologous normal donor restimulation assay, TNFα/IFNγ double positive CD8+ T cells by flow cytometry; type: cell-based, human; conditions: for Fold change (CD8+) vs. DMSO: maximum CD8+ T-cell response (TNFα and IFNγ); for Fold change (CD8+) vs. DMSO / Frequency (TNFα + IFNγ + CD8 T cells): donor independent, peptide pool 10 μg/mL, healthy donors; for Frequency (TNFα + IFNγ + CD8 T cells): maximum CD8+ T-cell response; for Immunogenic (yes/no): positive if CD8+ and/or CD4+ double positive TNFα/IFNγ frequency >=3-fold over DMSO and at least 0.01%
# Method: (§1) The immunogenicity of neoantigens was assessed using the exogenous autologous normal donor restimulation assay. […] The lyophilized peptides were solubilized in 100% DMSO.
# (§2) CD1c+ Dendritic Cells (CD1c+DC) isolated from human healthy PBMCs were thawed using media (IMDM (Gibco) supplemented with glutamine, HEPES, 5% human serum (Sigma), and 1× Pen-Strep). DC cells were resuspended in media supplemented with IL-4 (Peprotech, 20 ng/mL) and GM-CSF (Gibco, 20 ng/mL), plated in 6 well microplates, and rested overnight at 37° C. and 5% CO2 incubator. The following day, DC cells were counted and plated in a 96 well round bottom microplate at a concentration of 30,000 viable cells per well. Lyophilized neoantigen peptide pools (15-mer peptides with 8-mer overlapping peptide sequences) were solubilized in 100% DMSO with a stock concentration of 20 mg/mL Neoantigen peptides pools were added to DCs for a final concentration of 10 μg/mL and rested for 2 hours at 37° C. and 5% CO2 incubator. CEF Peptide Pool “Plus” (Cellular Technologies, Ltd.) was utilized as a positive control (each viral peptide at a final concentration of 4 ug/ml) and DMSO at the same final concentration (0.05%) as the experimental peptides was utilized as a negative control. After 2 hours, DC cells were irradiated with 50 gray of ionizing radiation. Autologous CD3+ Pan-T cells isolated from human normal PBMCs were thawed using media. Following irradiation, autologous Pan-T cells were added to the irradiated DCs at 300,000 viable cells per well. Human IL-15 (Peprotech) was added to all wells at final concentration of 10 ng/ml. Plates were incubated at 37° C. and 5% CO2 incubator for a total of 12 days. Media was refreshed every 2-3 days with IL-15 (R&D System, 10 ng/mL final concentration) and IL-2 (R&D systems, 10 IU/mL final concentration).
# (§3) On Day 11, cells were re-stimulated with identical experimental peptide pools or controls, at same concentration as peptide stimulation on Day 1. Protein Inhibitor Cocktail (eBioscience) was added to every well and plate was incubated overnight for 14-16 hours at 37° C. and 5% CO2 incubator. On Day 12, cells were stained for surface and intracellular flow cytometry analysis. The cells were washed with PBS and stained with Live/Dead Fixable Aqua Dead Cell stain (Thermo-Fisher). Following the live/dead stain, cells were blocked using Biotin-Fre Fc Receptor Blocker (Accurate Chemical & Scientific Corp). Extracellular cellular flow panel ([…] per well in 50 μL) consisted of CD3 PerCP-Cy5.5 (Biolegend), CD4 BV421 (Biolegend), and CD8 APC-Cy7 (Biolegend). After extracellular staining, cells were fixed and permeabilized using Foxp3/Transcription Factor Staining Buffer Set (eBioscience) and stained for intracellular proteins (1:50 dilution) using TNFα FITC (R&D Systems) and IFNγ BV785 (Biolegend). Cells were washed and resuspended in stain buffer, analyzed, and recorded in a BD Celesta flow cytometer.
# (§4) Flow cytometry analysis was conducted on FlowJo v10.6 software. Cells were gated on live, singlet, CD3+, CD4+ and CD8+ T cells. The CD8+ and CD4+ T cells were analyzed for TNFα and IFNγ expression.
# (§5) The immunogenicity of neoantigens was first investigated in 9-16 healthy donors.
# [2] = tested on: CD4+ T cells; test: exogenous autologous normal donor restimulation assay, TNFα/IFNγ double positive CD4+ T cells by flow cytometry; type: cell-based, human; conditions: donor independent, peptide pool 10 μg/mL, healthy donors; for Fold change (CD4+) vs. DMSO: maximum CD4+ T-cell response (TNFα and IFNγ); for Frequency (TNFα + IFNγ + CD4 T cells): maximum CD4+ T-cell response
# Method: as §1, §2, §3, §4, §5
Sequence,Fold change (CD8+) vs. DMSO [1] [fold],Frequency (TNFα + IFNγ + CD8 T cells) [1] [%],Immunogenic (yes/no) [1],Fold change (CD4+) vs. DMSO [2] [fold],Frequency (TNFα + IFNγ + CD4 T cells) [2] [%]
"QTQEETDRDRGSWSCAVA [AS64, neoantigen, alternative splicing of IQGAP3]",33.44,0.21,Yes,5.43,0.024
"RASCGAQKACDVNQLTSS [FUS17, neoantigen, gene fusion C20orf204->TCEA2]",13.53,0.23,Yes,6.91,0.045
"RGGRGAQENSLD [FUS10, neoantigen, gene fusion SCNN1A->TNFRSF1A]",896.55,19.5,yes,20.13,0.072
"RLDDSGIGNFITSLLNFISKFFCSFMGA [AS99, neoantigen, alternative splicing of FAM221A]",160.85,1.43,Yes,4,0.077
"RNTLKESSKLKSSFEYWFAGFFSSSSSFFFLSRKFCFVFCLCWVESLGGVS [AS157, neoantigen, alternative splicing of ZIC4]",51.78,0.16,Yes,5.53,0.083
"RRHGEVQGLLEREKTARGNPSG [AS72, neoantigen, alternative splicing of SMC1B]",8.6,0.23,Yes,4.15,0.036
"RSSGLTTSSEYSTHVHMPLILHQAEQELLLLINP [AS141, neoantigen, alternative splicing of MUC16]",3.82,0.041,Yes,6.94,0.045
"RYWTPATSSEYSNL [AS143, neoantigen, alternative splicing of MUC16]",12.1,0.13,Yes,3.6,0.033
"SGCRLTLLSLSPVSSLGCPVPMP [AS107, neoantigen, alternative splicing of MUC16]",2351.27,16.6,Yes,14.89,0.062
"SHALNWNKIGRMFRASRV [AS65, neoantigen, alternative splicing of LCN10]",82.3,2.2,Yes,73.69,0.64
"SISLTDDEAELPLLDL [AS77, neoantigen, alternative splicing of EP400]",6.59,0.12,Yes,20.73,0.18
"SMMEGVIQLSFKAIVCLLSCLDLLSLFRVVRHLS [AS94, neoantigen, alternative splicing of AFDN]",1080.99,9.61,Yes,62.76,0.098
"SRRLKLAQGRLRGLERLHSPQPFLQPMLPQGAQGPCKAPGQGQLLGGRREPDPS [AS14, neoantigen, alternative splicing of FOXH1]",257.47,5.6,Yes,59.26,0.12
"STLNITLSFDSHHGHHPVSVI [FUS6, neoantigen, gene fusion PKHD1L1->EBAG9]",4.47,0.096,yes,26.51,0.11
"TKKRKQSELQQP [AS95, neoantigen, alternative splicing of DMXL2]",2.54,0.03,No,2.91,0.026
"TRSLDDLEKLDTLCCKLSVHVT [AS33, neoantigen, alternative splicing of RGS12]",6958.6,43.7,Yes,32.24,0.28
"VEDEEKKEAGTHFIHLTGTTVSAGVPEEMPATTLRREVF [AS91, neoantigen, alternative splicing of ACIN1]",46.44,0.21,Yes,36.02,0.23
"VEDEEKKEGSMLVAPTSPPSLEAGTHFIHLTGTTVSAGVPEEMPATTLRREVF [AS93, neoantigen, alternative splicing of ACIN1]",459.18,0.9,Yes,253.72,1.62
"VEDEEKKEPDGAQRHLVDIGGSHQTSHAEKFLFLLCPPVV [AS90, neoantigen, alternative splicing of ACIN1]",28.95,0.1,Yes,4.93,0.044
"VIPGDLSEAHGYSFS [AS5, neoantigen, alternative splicing of PLAG1]",2.41,0.017,Yes,17.14,0.18
"VLRKTAHRSTTARCSCPPWLTCWPRVAAPGALSTVAREASWWLLTTEVV [AS74, neoantigen, alternative splicing of TRPM5]",1018.49,6.6,Yes,17.23,0.064
"VLTVTSTDQEYLDLSAP [AS44, neoantigen, alternative splicing of FGFR3]",85.94,0.33,Yes,13.45,0.067
"VQKLKNARSLNLEDQI [AS83, neoantigen, alternative splicing of NUF2]",10.83,0.14,Yes,71.14,0.061
"WSQDLQEGFSAPSRISAWFGPP [AS17, neoantigen, alternative splicing of KRT8]",169.53,0.79,Yes,29.97,0.41
